Measured values taken from ChEMBL document CHEMBL1155595, “Inhibition of T-lymphocyte proliferation by cucurbitacins from Picrorhiza scrophulariaeflora” (J Nat Prod, 2000).

Tests used:
[1] = Inhibition of phytohemagglutininin A-induced T-cell proliferation in human peripheral blood lymphocytes after 4 days by MTT assay; type: functional, cell-based; conditions: PBL, 96 h
[2] = Cytotoxicity against human peripheral blood lymphocytes at <60 uM after 4 days by CFDA/PI labeling assay; conditions: pbl, 96 h
[3] = Cytotoxicity against human peripheral blood lymphocytes assessed as LDH release upto 50 uM after 24 hrs; conditions: pbl

SMILES | IC50 [1] | Activity [2] | Activity [3]
CC(=O)OC(C)(C)/C=C/C(=O)[C@@](C)(O)[C@H]1[C@H](O)C[C@@]2(C)[C@@H]3CC=C4[C@@H](C[C@H](O)[C@H](O)C4(C)C)[C@]3(C)CC[C@]12C [PICRACIN] | 1 µM | < 10% | Non-toxic
CC(C)(O)/C=C/C(=O)[C@@](C)(O)[C@H]1[C@H](O)C[C@@]2(C)[C@@H]3CC=C4[C@@H](C[C@H](O)[C@H](O)C4(C)C)[C@]3(C)CC[C@]12C [DEACETYLPICRACIN] | 1 µM | < 10% | Non-toxic
